Data: US11077126B2 (priority 2017, dated 2021)
Like-named read-outs stand apart in the source and are kept apart here.

Test system: mouse bone marrow polychromatic erythrocytes
Settings: mouse, in vivo; for Number of Micronuclei / P/N / P/N Ratio: po
Procedure: It is the object to test the mutagenic potential of drugs on mammalian somatic cells, and provide a basis for clinical drug use.
An appropriate amount of 0.5% sodium carboxymethyl cellulose solution was added to prepare a suspension, and the suspension was stored in a refrigerator at 4° C. The negative control was an equal amount of 0.5% sodium carboxymethylcellulose solution. The positive control was prepared as follows: an appropriate amount of cyclophosphamide used for injection was weighed, and was dissolved in normal saline at the time of use to prepare 60 mg/kg of solution.
6 mice per group. The doses, number of administrations, and bone marrow sampling time are selected in the pre-test.
The dose is reduced by ½ LD50 as the standard, and the number of administrations is one time. According to the pre-test results, the bone marrow sampling time is to sample 24 hours after administration.
At least three dose groups, respectively: 2,000 mg/kg, 1,000 mg/kg, 500 mg/kg
The number of administrations: one-time oral administration.
Oral (Intragastric) administration.
2.4.3 Bone marrow sampling time: 24 hours after administration.
The mice were sacrificed by cervical dislocation. Then the sternums were taken to remove the muscles thereon and the attachments were wiped with a gauze. Direct smear of bone marrow was used: the sternums were cut to expose the medullary cavity, and bone marrow was extruded and mixed well with a drop of calf serum on a slide beforehand as a push piece. After being dried, the slide was fixed in methanol for 10 minutes, and then after it was dried, it was then subjected to Giemsa staining. Each mouse was microscopically examined for about 1,000 polychromatic erythrocytes with intact contours of erythrocytes, and the frequency of occurrence of micronuclei and the ratio of polychromatic erythrocytes to erythrocytes were counted.

Carrimycin
conclusion of micronucleus test: chromosomal cleavage: is not a chromosomal cleavage agent | conclusion of micronucleus test: effect on the bone marrow: no inhibitory effect on the bone marrow | micronucleus rate of polychromatic erythrocytes compared with the negative control group: do not have significant increase | Number of Micronuclei (500 mg/kg): 18 | P/N (500 mg/kg): 0.34 | P/N Ratio (500 mg/kg): 0.34 | Number of Micronuclei (1000 mg/kg): 16 | P/N (1000 mg/kg): 0.33 | P/N Ratio (1000 mg/kg): 0.33 | Number of Micronuclei (2000 mg/kg): 21 | P/N (2000 mg/kg): 0.38 | P/N Ratio (2000 mg/kg): 0.38
